Where a name gives a salt, the structure may show the parent alone.
Target: T1, AR in VCaP cells (Homo sapiens, UniProt P10275)
T1 construct: endogenous in cells; host or cells: VCaP cells
T1 sequence (P10275 1-920): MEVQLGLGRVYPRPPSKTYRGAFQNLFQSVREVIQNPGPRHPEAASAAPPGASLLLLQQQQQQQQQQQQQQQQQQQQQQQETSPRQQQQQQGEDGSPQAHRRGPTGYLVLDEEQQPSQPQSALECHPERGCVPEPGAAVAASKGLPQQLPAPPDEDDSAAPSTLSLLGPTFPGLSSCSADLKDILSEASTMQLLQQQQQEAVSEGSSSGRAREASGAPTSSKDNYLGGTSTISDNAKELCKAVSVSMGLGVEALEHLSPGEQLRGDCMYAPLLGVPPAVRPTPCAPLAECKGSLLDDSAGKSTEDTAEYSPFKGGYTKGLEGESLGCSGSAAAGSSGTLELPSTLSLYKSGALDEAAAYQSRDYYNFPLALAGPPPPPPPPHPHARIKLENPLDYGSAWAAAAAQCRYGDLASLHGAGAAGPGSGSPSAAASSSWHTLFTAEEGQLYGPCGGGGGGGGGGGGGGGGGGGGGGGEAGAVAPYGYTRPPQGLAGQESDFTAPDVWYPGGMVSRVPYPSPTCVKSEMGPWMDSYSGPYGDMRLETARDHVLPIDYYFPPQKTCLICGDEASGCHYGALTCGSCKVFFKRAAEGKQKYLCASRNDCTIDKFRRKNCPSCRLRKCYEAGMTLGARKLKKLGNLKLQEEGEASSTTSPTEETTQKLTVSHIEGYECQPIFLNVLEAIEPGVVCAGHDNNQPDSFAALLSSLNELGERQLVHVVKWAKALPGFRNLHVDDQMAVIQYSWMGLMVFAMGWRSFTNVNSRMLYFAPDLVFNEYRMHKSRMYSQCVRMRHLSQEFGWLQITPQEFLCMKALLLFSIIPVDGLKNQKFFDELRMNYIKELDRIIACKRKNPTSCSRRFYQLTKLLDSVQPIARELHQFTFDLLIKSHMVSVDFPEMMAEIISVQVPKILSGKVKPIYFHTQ
Assay: VCAP AR Degradation Assay (AR ELISA, 24 h)
Assay type: cell-based
Details: for DC50: concentration giving 50% AR degradation vs DMSO control; for remaining activity at up to 5 µM: lowest measured AR level normalized to DMSO control, top concentration 5 μM, read-out: Y
Protocol: VCAP AR Degradation Assay. Test compounds were pre-dispensed into a Corning CellBind 96-well clear bottom plate (Cat #3300) using an acoustic dispenser to make a 10-point concentration series at 1:3 dilution for each compound. The final top concentration of each compound was 5 μM. DMSO at a final concentration of 0.1% was used as a control. VCaP cells cultured in DMEM with 8% fetal bovine serum (FBS) were seeded at 50K cells per well in a 200 μL volume into the compound plate and incubated at 37° C. in a CO2 incubator for 24 h. The medium was carefully removed from the cells and the plate was placed on ice. One hundred μL of ice-cold 1× cell lysis buffer from Cell Signaling Technologies (Cat #9803) was added to each well of the cells and the plate was incubated at 4° C. on a shaker for 1 h. Fifteen μL of cell lysate was used for AR ELISA detection using a PathScan Total Sandwich AR ELISA kit (Cell Signaling Technology, Cat #12580). AR levels in compound-treated wells were normalized to that of DMSO control and expressed as percent of control (PoC) (y). A Four Parameter Logistic Model (Sigmoidal Dose-Response Model) was used to determine the compound's DC50, and EC50, using the following equation: […]
The lowest measured AR level normalized to DMSO control in response to compound treatment, termed Y value, was used to characterize the compound-mediated AR degradation efficiency.

| Compound | DC50 [nM] | remaining activity at up to 5 µM [%] |
| --- | --- | --- |
| CC1(C)C(=O)N(c2ccc(C#N)c(C(F)(F)F)c2)C(=S)N1[C@H]1CC[C@H](OCCN2CCN(CC(=O)Nc3ccc(C4CCC(=O)NC4=O)nc3)[C@@H](C(F)(F)F)C2)CC1 (stereo partly drawn) [Cmpd 13, 2-((R)-4-(2-((trans-4-(3-(4-Cyano-3-(trifluoromethyl)phenyl)-5,5-dimethyl-4-oxo-2-thioxoimidazolidin-1-yl)cyclohexyl)oxy)ethyl)-2-(trifluoromethyl)piperazin-1-yl)-N-(6-(2,6-dioxopiperidin-3-yl)pyridin-3-yl)acetamide hydrochloride] | 5 to 10 | 20 to 30 |
| CC1(C)C(=O)N(c2ccc(C#N)c(C(F)(F)F)c2)C(=S)N1[C@H]1CC[C@H](OCCC2CCN(CC(=O)Nc3ccc(C4CCC(=O)NC4=O)nc3)CC2(F)F)CC1 (stereo partly drawn) [Cmpd 31, 2-(4-(2-(((trans)-4-(3-(4-Cyano-3-(trifluoromethyl)phenyl)-5,5-dimethyl-4-oxo-2-thioxoimidazolidin-1-yl)cyclohexyl)oxy)ethyl)-3,3-difluoropiperidin-1-yl)-N-(6-(2,6-dioxopiperidin-3-yl)pyridin-3-yl)acetamide] | ≤ 5 | 0 to 20 |
| CC1(C)C(=O)N(c2ccc(C#N)c(C(F)(F)F)c2)C(=S)N1[C@H]1CC[C@H](OCCCN2CCN(CC(=O)Nc3ccc(C4CCC(=O)NC4=O)nc3)[C@@H](C(F)(F)F)C2)CC1 (stereo partly drawn) [Cmpd 25, 2-((R)-4-(3-(((trans)-4-(3-(4-Cyano-3-(trifluoromethyl)phenyl)-5,5-dimethyl-4-oxo-2-thioxoimidazolidin-1-yl)cyclohexyl)oxy)propyl)-2-(trifluoromethyl)piperazin-1-yl)-N-(6-(2,6-dioxopiperidin-3-yl)pyridin-3-yl)acetamide] | ≤ 5 | 20 to 30 |
| C[C@@H]1CN(CCCO[C@H]2CC[C@H](N3C(=S)N(c4ccc(C#N)c(C(F)(F)F)c4)C(=O)C3(C)C)CC2)C[C@H](C)N1CC(=O)Nc1ccc(C2CCC(=O)NC2=O)nc1 (stereo partly drawn) [Cmpd 5, 2-((2R,6S)-4-(3-((trans-4-(3-(4-Cyano-3-(trifluoromethyl)phenyl)-5,5-dimethyl-4-oxo-2-thioxoimidazolidin-1-yl)cyclohexyl)oxy)propyl)-2,6-dimethylpiperazin-1-yl)-N-(6-(2,6-dioxopiperidin-3-yl)pyridin-3-yl)acetamide hydrochloride] | ≤ 5 | 20 to 30 |
| CC1(C)C(=O)N(c2cnc(C#N)c(C(F)(F)F)c2)C(=S)N1[C@H]1CC[C@H](OCCCN2CCN(CC(=O)Nc3ccc(C4CCC(=O)NC4=O)nc3)[C@@H](C(F)(F)F)C2)CC1 (stereo partly drawn) [Cmpd 23, 2-((R)-4-(3-(((trans)-4-(3-(6-Cyano-5-(trifluoromethyl)pyridin-3-yl)-5,5-dimethyl-4-oxo-2-thioxoimidazolidin-1-yl)cyclohexyl)oxy)propyl)-2-(trifluoromethyl)piperazin-1-yl)-N-(6-(2,6-dioxopiperidin-3-yl)pyridin-3-yl)acetamide] | ≤ 5 | 0 to 20 |
| CC1(C)C(=O)N(c2cnc(C#N)c(C(F)(F)F)c2)C(=S)N1[C@H]1CC[C@H](OCCN2CCN(CC(=O)Nc3ccc(C4CCC(=O)NC4=O)nc3)[C@@H](C(F)(F)F)C2)CC1 (stereo partly drawn) [Cmpd 24, 2-((R)-4-(2-(((trans)-4-(3-(6-Cyano-5-(trifluoromethyl)pyridin-3-yl)-5,5-dimethyl-4-oxo-2-thioxoimidazolidin-1-yl)cyclohexyl)oxy)ethyl)-2-(trifluoromethyl)piperazin-1-yl)-N-(6-(2,6-dioxopiperidin-3-yl)pyridin-3-yl)acetamide] | ≤ 5 | 20 to 30 |
